Values of other authors as cited in patent US9102664B2, “Process for the preparation of triazole antifungal drug, its intermediates and polymorphs thereof” (MSN Laboratories Limited, priority 2011, dated 2015).

Columns and labels:
[1] = produced per U.S. Pat. No. 5,661,151 using 6N HCl in methanol
[2] = under the conditions investigated in WO 99/18097

stability of amorphous form [1] | stability of crystalline form [2] | Compound
not stable | – | CC[C@@H]([C@H](C)O)n1ncn(-c2ccc(N3CCN(c4ccc(OC[C@@H]5CO[C@@](Cn6cncn6)(c6ccc(F)cc6F)C5)cc4)CC3)cc2)c1=O [Amorphous form of posaconazole, posaconazole]
– | unstable | CC[C@@H]([C@H](C)O)n1ncn(-c2ccc(N3CCN(c4ccc(OC[C@@H]5CO[C@@](Cn6cncn6)(c6ccc(F)cc6F)C5)cc4)CC3)cc2)c1=O [form II, posaconazole]
